{"source": "patent US9243254B2", "about": "“Method for transforming a bacterium belonging to the streptococcus genus by natural competence” (priority 2009, dated 2016)", "assay_in_all_cases": "Natural transformation in CDM upon addition of synthetic peptide", "type_in_all_cases": "cell-based, Streptococcus thermophilus", "key": {"S. thermophilus LMG18311": {"system": "S. thermophilus LMG18311"}, "S. thermophilus CNRZ1066": {"system": "S. thermophilus CNRZ1066", "procedure": "Similarly to the protocol used in example 4, strains LMD-9, LMG18311, CNRZ1066 and JIM8777 were pre-cultivated in M17-lactose medium. The cells of the precultures were harvested (5000 g, 9 minutes, 20° C.) and washed twice in CDM and then resuspended in CDM. The washed cells were diluted in fresh CDM medium to obtain an optical density of 0.05, and then incubated at 37° C. After 1.5 h of incubation, in one set of experiment, 1 μM of one of the tested synthetic peptides and 1 μg/mL of pGIUD0855ery DNA (in case of S. thermophilus strains), or 1 μg/ml of pG+host09 DNA (in case of S. salivarius strains) were added to the culture, whereas 1 μg/mL of DNA but no synthetic peptide was added to the second set of experiment. The cultures were grown during 6 hours and serial dilutions were plated on the surface of M17-lactose agar medium containing 2.5 μg/mL of erythromycin to measure transformation efficiency. Transformed S. thermophilus and S. salivarius cells are selected at 37° C. and 29° C., respectively.\n(§1) Similarly to the protocol used in example 4, various S. thermophilus strains, including LMD-9, CNRZ1066 and LMG18311 used as controls, were pre-cultivated in M17-lactose medium. The cells of the precultures were harvested (5000 g, 9 minutes, 20° C.) and washed twice in CDM and then resuspended in CDM. The washed cells were diluted in fresh CDM medium to obtain an optical density of 0.05, and then incubated at 37° C. After 1.5 h of incubation, in one set of experiment, 1 μM of one of the tested synthetic peptides (LPYFAGCL) (SEQ ID NO: 85) and 1 μg/mL of pGIUD0855cat DNA were added to the culture, whereas 1 μg/mL of DNA but no synthetic peptide was added to the second set of experiment. Plasmid pGIUD0855cat is a pUC18-derivative containing a chloramphenicol resistance cassette flanked by 1-kb fragments corresponding to the upstream and downstream regions of stu0855. Upon transformation, it promotes the genetic replacement of stu0855 by P32-cat through homologous recombination (FIG. 7). The cultures were grown during 6 hours and serial dilutions were plated on the surface of M17-lactose agar medium containing 5 μg/mL of chloramphenicol to measure transformation efficiency. Transformed S. thermophilus cells were selected at 37° C.; when transformants were obtained, the transformation efficiency was calculated and is given in Table 9.\nDay 2: • Centrifuge Day 1—culture (centrifugation parameters: 5000 g, 9 minutes, 15° C.) and perform two washing steps with one volume (10 mL) of CDM (centrifugation parameters: 5000 g, 9 minutes, 15° C.). • Dilute the culture in 10 mL CDM to obtain an OD600nm of 0.05. • A small volume of S. thermophilus cultures (300 μL) is then transferred in white microplate with a transparent bottom (655095; Greiner, Alphen aid Rijn, The Netherlands) and is grown at 37° C. Luminescence at 595 nm and optical density at 600 nm are recorded with the automatic Synergy HT multi-mode microplate reader. The luciferase activity catalysed by LuxAB requires the presence of nonanal as substrate. In this experimental set-up, nonanal (Acros Organics ref. 204-688-5) is supplied to the cultures by placing 50 μL of a solution containing 1% nonanal diluted in mineral oil in the spaces between the wells of a covered microplate (11). […] The luminescence and absorbance are scanned every 10 minutes during 6 hours. • To perform a competence experiment, 1 μg of donor DNA is added in the 300 μL samples in the beginning of incubation. […]"}, "S. thermophilus DGCC7666": {"system": "S. thermophilus DGCC7666", "conditions": "1 μM LPYFAGCL, 1 μg/mL pUC18_stu0855::P32cat", "procedure": "as §1"}, "S. thermophilus DGCC7854": {"system": "S. thermophilus DGCC7854", "conditions": "1 μM LPYFAGCL, 1 μg/mL pUC18_stu0855::P32cat", "procedure": "as §1"}, "S. thermophilus DGCC7694": {"system": "S. thermophilus DGCC7694", "conditions": "1 μM LPYFAGCL, 1 μg/mL pUC18_stu0855::P32cat", "procedure": "as §1"}, "S. thermophilus DGCC782": {"system": "S. thermophilus DGCC782", "conditions": "1 μM LPYFAGCL, 1 μg/mL pUC18_stu0855::P32cat", "procedure": "as §1"}, "S. thermophilus DGCC715": {"system": "S. thermophilus DGCC715", "conditions": "1 μM LPYFAGCL, 1 μg/mL pUC18_stu0855::P32cat", "procedure": "as §1"}, "S. thermophilus DGCC7785": {"system": "S. thermophilus DGCC7785", "conditions": "1 μM LPYFAGCL, 1 μg/mL pUC18_stu0855::P32cat", "procedure": "as §1"}, "S. thermophilus DGCC7879": {"system": "S. thermophilus DGCC7879", "conditions": "1 μM LPYFAGCL, 1 μg/mL pUC18_stu0855::P32cat", "procedure": "as §1"}, "S. thermophilus DGCC3367": {"system": "S. thermophilus DGCC3367", "conditions": "1 μM LPYFAGCL, 1 μg/mL pUC18_stu0855::P32cat", "procedure": "as §1"}, "S. thermophilus DGCC7891": {"system": "S. thermophilus DGCC7891", "conditions": "1 μM LPYFAGCL, 1 μg/mL pUC18_stu0855::P32cat", "procedure": "as §1"}, "S. thermophilus DGCC7796": {"system": "S. thermophilus DGCC7796", "conditions": "1 μM LPYFAGCL, 1 μg/mL pUC18_stu0855::P32cat", "procedure": "as §1"}, "S. thermophilus DGCC7790": {"system": "S. thermophilus DGCC7790", "conditions": "1 μM LPYFAGCL, 1 μg/mL pUC18_stu0855::P32cat", "procedure": "as §1"}, "S. thermophilus DGCC7773": {"system": "S. thermophilus DGCC7773", "conditions": "1 μM LPYFAGCL, 1 μg/mL pUC18_stu0855::P32cat", "procedure": "as §1"}, "S. thermophilus DGCC7809": {"system": "S. thermophilus DGCC7809", "conditions": "1 μM LPYFAGCL, 1 μg/mL pUC18_stu0855::P32cat", "procedure": "as §1"}, "S. thermophilus DGCC7710": {"system": "S. thermophilus DGCC7710", "conditions": "1 μM LPYFAGCL, 1 μg/mL pUC18_stu0855::P32cat", "procedure": "as §1"}, "S. thermophilus DGCC7909": {"system": "S. thermophilus DGCC7909", "conditions": "1 μM LPYFAGCL, 1 μg/mL pUC18_stu0855::P32cat", "procedure": "as §1"}, "S. thermophilus DGCC7853": {"system": "S. thermophilus DGCC7853", "conditions": "1 μM LPYFAGCL, 1 μg/mL pUC18_stu0855::P32cat", "procedure": "as §1"}, "[1]": {"conditions": "1 μM PYFAGCL, 1 μg/mL pGIUD0855ery"}, "[2]": {"conditions": "1 μM LPYFAGCL, 1 μg/mL pUC18_stu0855::P32cat, chloramphenicol selection"}}}
{"substance": "PYFAGCL (fragment)", "values": [{"measurement": "Transformation rate, With peptide addition", "setting": "S. thermophilus LMG18311; [1]", "value": "3.17 × 10^−4"}, {"measurement": "Increase of efficiency of transformation upon peptide addition", "setting": "S. thermophilus LMG18311; 1 μM peptide in CDM versus no peptide", "value": 1000, "unit": "fold"}, {"measurement": "Transformation rate, With peptide addition", "setting": "S. thermophilus CNRZ1066; [1]", "value": "3.69 × 10^−4"}, {"measurement": "Complementation of the transformation defect in CDM", "setting": "S. thermophilus CNRZ1066; 1 μM peptide, result in words", "value": "complements the transformation defect"}]}
{"substance": "LPYFAGCL (fragment) [synthetic peptide corresponding to a C-terminal fragment of Shp316]", "values": [{"measurement": "Transformation rate, With peptide addition", "setting": "S. thermophilus LMG18311; [2]", "value": "1.3 × 10^−1"}, {"measurement": "Calculated efficiency of transformation", "setting": "S. thermophilus LMG18311; LPYFAGCL-induced competence, forty six μg of LMD-9 genomic DNA, selection on CDM agar deprived of histidine", "value": 0.00016, "unit": "µg⁻¹"}, {"measurement": "Transformation rate, With peptide addition", "setting": "S. thermophilus DGCC7666", "value": "4.2 × 10^−2"}, {"measurement": "Transformation rate, With peptide addition", "setting": "S. thermophilus DGCC7854", "value": "5.3 × 10^−3"}, {"measurement": "Transformation rate, With peptide addition", "setting": "S. thermophilus DGCC7694", "value": "3.9 × 10^−2"}, {"measurement": "Transformation rate, With peptide addition", "setting": "S. thermophilus DGCC782", "value": "2 × 10^−3"}, {"measurement": "Transformation rate, With peptide addition", "setting": "S. thermophilus DGCC715", "value": "1.2 × 10^−2"}, {"measurement": "Transformation rate, With peptide addition", "setting": "S. thermophilus DGCC7785", "value": "4.1 × 10^−5"}, {"measurement": "Transformation rate, With peptide addition", "setting": "S. thermophilus DGCC7879", "value": "8.6 × 10^−3"}, {"measurement": "Transformation rate, With peptide addition", "setting": "S. thermophilus DGCC3367", "value": "1.8 × 10^−3"}, {"measurement": "Transformation rate, With peptide addition", "setting": "S. thermophilus DGCC7891", "value": "1.4 × 10^−4"}, {"measurement": "Transformation rate, With peptide addition", "setting": "S. thermophilus DGCC7796", "value": "6.9 × 10^−2"}, {"measurement": "Transformation rate, With peptide addition", "setting": "S. thermophilus DGCC7790", "value": "4.3 × 10^−2"}, {"measurement": "Transformation rate, With peptide addition", "setting": "S. thermophilus DGCC7773", "value": "1.5 × 10^−1"}, {"measurement": "Transformation rate, With peptide addition", "setting": "S. thermophilus DGCC7809", "value": "5.8 × 10^−4"}, {"measurement": "Transformation rate, With peptide addition", "setting": "S. thermophilus DGCC7710", "value": "1 × 10^−2"}, {"measurement": "Transformation rate, With peptide addition", "setting": "S. thermophilus DGCC7909", "value": "4.5 × 10^−3"}, {"measurement": "Transformation rate, With peptide addition", "setting": "S. thermophilus DGCC7853", "value": "4.9 × 10^−4"}, {"measurement": "Transformation rate, With peptide addition", "setting": "S. thermophilus CNRZ1066; [2]", "value": "3 × 10^−2"}]}
